According to patent US20230167467A1, “METHODS AND COMPOSITIONS FOR THE PRODUCTION OF ISOBUTENE” (University of Alaska Anchorage, priority 2020, published 2023):

Tested on: Engineered strains of E. coli
Type: cell-based
[1] = after solvent exposure, vs positive control

`CC(C)CO` [isobutanol] was tested, and the “expression of RNAse adapter protein rapZ” value was “downregulation”, the “expression of accBC (fatty acid biosynthesis)” value was “downregulated” and the “expression of adiA” value was “downregulated”. The “expression of bssRS (decreasing biofilm material)” value was “upregulated”, the “expression of chaperone genes groLS and dnaJK” value was “increased expression” and the “expression of gadABCE (acid resistance via GABA production)” value was “downregulated”. For the same compound, the “expression of gatY and marCRAB loci” value was “upregulation”, the “expression of glpABC (glycerol to glycerone phosphate)” value was “increased in expression” and the “expression of heat shock proteins and chaperones hslJORUV” value was “upregulation”. The “expression of ibpAB and clpAB (protein protection and repair)” value was “increased”, the “expression of marA” value was “upregulated” and the “change in expression of gene adiA” value [1] was −2.97 ± 0.87. The “change in expression of gene adiC” value [1] was −2.56 ± 1.03, the “change in expression of gene adiY” value [1] was −0.17 ± 0.65 and the “change in expression of gene bhsA” value [1] was 4.78 ± 0.60. The “change in expression of gene bssR” value [1] was −1.75 ± 1.29, the “change in expression of gene bssS” value [1] was 4.08 ± 0.84 and the “change in expression of gene clpA” value [1] was 2.07 ± 0.63. The “change in expression of gene clpB” value [1] was 4.51 ± 0.69, the “change in expression of gene clpP” value [1] was 0.38 ± 0.59 and the “change in expression of gene coaA” value [1] was −3.09 ± 0.90. The “change in expression of gene coaD” value [1] was −1.68 ± 0.97, the “change in expression of gene cspA” value [1] was −4.88 ± 0.58 and the “change in expression of gene cspB” value [1] was −5.73 ± 1.38. For the same compound, the “change in expression of gene cspC” value [1] was −3.36 ± 0.94, the “change in expression of gene cspD” value [1] was 1.73 ± 0.58 and the “change in expression of gene cspE” value [1] was −1.94 ± 0.64. For the same compound, the “change in expression of gene cspF” value [1] was −3.40 ± 1.07, the “change in expression of gene dhaK” value [1] was 1.05 ± 0.59 and the “change in expression of gene dhaL” value [1] was −0.04 ± 0.64. The “change in expression of gene dnaJ” value [1] was 3.71 ± 0.69, the “change in expression of gene dnaK” value [1] was 4.53 ± 0.66 and the “change in expression of gene fabA” value [1] was −2.84 ± 0.81. For the same compound, the “change in expression of gene fabB” value [1] was −0.39 ± 0.68, the “change in expression of gene fabD” value [1] was −2.33 ± 0.53 and the “change in expression of gene flgA” value [1] was −3.05 ± 1.60. For the same compound, the “change in expression of gene flgB” value [1] was −8.74 ± 1.90, the “change in expression of gene flgC” value [1] was −8.87 ± 2.24 and the “change in expression of gene flgD” value [1] was −6.75 ± 2.03. For the same compound, the “change in expression of gene flgE” value [1] was −4.68 ± 1.21, the “change in expression of gene flgF” value [1] was −5.18 ± 1.70 and the “change in expression of gene flgG” value [1] was −6.73 ± 1.69. The “change in expression of gene flgH” value [1] was −4.17 ± 1.80, the “change in expression of gene gabD” value [1] was −2.21 ± 1.41 and the “change in expression of gene gabP” value [1] was −1.47 ± 1.32. For the same compound, the “change in expression of gene gabT” value [1] was −1.57 ± 1.34, the “change in expression of gene gadA” value [1] was −0.71 ± 0.69 and the “change in expression of gene gadB” value [1] was 0.96 ± 0.79. For the same compound, the “change in expression of gene gadC” value [1] was 1.56 ± 0.80, the “change in expression of gene gadE” value [1] was −0.46 ± 0.60 and the “change in expression of gene gadW” value [1] was −4.10 ± 0.99. For the same compound, the “change in expression of gene gadX” value [1] was −2.01 ± 0.57, the “change in expression of gene gadY” value [1] was −3.37 ± 0.80 and the “change in expression of gene glpA” value [1] was 5.44 ± 0.87. For the same compound, the “change in expression of gene glpB” value [1] was 2.96 ± 0.64, the “change in expression of gene glpC” value [1] was 2.92 ± 0.81 and the “change in expression of gene groL” value [1] was 4.05 ± 0.57. The “change in expression of gene groS” value [1] was 4.43 ± 0.50, the “change in expression of gene hchA” value [1] was 3.17 ± 0.60 and the “change in expression of gene hslJ” value [1] was 1.12 ± 0.66. For the same compound, the “change in expression of gene hslO” value [1] was 1.72 ± 0.65, the “change in expression of gene hslR” value [1] was 2.12 ± 0.65 and the “change in expression of gene hslU” value [1] was 1.52 ± 0.56. The “change in expression of gene hslV” value [1] was 0.88 ± 0.62, the “change in expression of gene ibpA” value [1] was 5.74 ± 1.21 and the “change in expression of gene ibpB” value [1] was 6.79 ± 1.50. For the same compound, the “change in expression of gene lipA” value [1] was 0.31 ± 0.60, the “change in expression of gene lipB” value [1] was −2.33 ± 0.69 and the “change in expression of gene narG” value [1] was 2.47 ± 0.65. The “change in expression of gene narH” value [1] was 1.99 ± 0.62, the “change in expression of gene narI” value [1] was 0.99 ± 0.94 and the “change in expression of gene narJ” value [1] was 1.39 ± 0.69. The “change in expression of gene narK” value [1] was −0.93 ± 0.90, the “change in expression of gene potA” value [1] was −5.42 ± 0.87 and the “change in expression of gene potB” value [1] was −2.50 ± 1.32. For the same compound, the “change in expression of gene potC” value [1] was −2.97 ± 1.28, the “change in expression of gene pspA” value [1] was 5.48 ± 0.55 and the “change in expression of gene pspB” value [1] was 3.26 ± 0.68. The “change in expression of gene rpoA” value [1] was −0.58 ± 0.44, the “change in expression of gene rpoB” value [1] was −0.72 ± 0.40 and the “change in expression of gene rpoC” value [1] was −1.03 ± 0.39. For the same compound, the “change in expression of gene rpoD” value [1] was 1.30 ± 0.70, the “change in expression of gene rpoE” value [1] was −1.10 ± 0.62 and the “change in expression of gene rpoH” value [1] was 1.72 ± 0.52. For the same compound, the “change in expression of gene rpoN” value [1] was −1.50 ± 0.49, the “change in expression of gene rpoS” value [1] was 1.73 ± 0.47 and the “change in expression of gene rpoZ” value [1] was −0.91 ± 0.54. For the same compound, the “change in expression of gene spy” value [1] was 8.88 ± 0.87, the “change in expression of gene tatA” value [1] was −2.04 ± 0.52 and the “change in expression of gene tatB” value [1] was −2.87 ± 0.60. For the same compound, the “change in expression of gene tatC” value [1] was −4.38 ± 1.21, the “change in expression of gene tatD” value [1] was −4.11 ± 1.20 and the “change in expression of gene tatE” value [1] was 0.70 ± 0.64. The “number of genes with significant changes in expression” value (vs control, Bon Ferroni corrected p-value<0.05) was 831 genes.
